The source of these data is patent US8389739B1, “Modulators of retinoid-related orphan receptor gamma” (Orphagen Pharmaceuticals, priority 2006, dated 2013).

pEC50: −log10 of the molar value. Where two headings read alike, the source gives them in different places.

Assay [1] addresses T1, mRORγ (Mus musculus, UniProt P51450).
T1 construct: expressed in transfected cells; host or cells: CHO cells, transient transfection
Briefly: Transcriptional assay, Gal4-mRORγ with luciferase reporter in CHO cells. The class given is cell-based. The procedure:
The complete Gal4-mRORγ nucleotide sequence is shown below:
(§1) A firefly luciferase reporter gene for Gal4 DBD hybrid receptors, such as Gal4-RORγ, contains five copies of the Gal4 17-mer response element in its promoter and the coding sequence for firefly luciferase (pG5-luc, Promega). CHO (Chinese Hamster Ovary) cells were cultured in Ham's F12 medium supplemented with 10% fetal calf serum (Gemini Biologicals), 10 μg/ml penicillin and streptomycin, and were maintained in a humidified 37° C. incubator (Thermo Electron, Steri-Cycle) with 5% CO2. 24 hours before transfection, cells were plated in T175 flasks (5×10^6 cells/flask) or T75 flasks (1.7×10^6 cells/flask). Transient transfection of CHO cells was performed using TransIT-CHO reagents (Minis, Madison, Wis.) with a mixing ratio of 2:6:1 between plasmid DNA (in μg), TransIT-CHO (in μl) and CHO-mojo (in μl).
(§2) Plates are maintained at 37° C. in a humidified atmosphere with 7% CO2 overnight. Four (4) hours after cell seeding, compounds dissolved in DMSO at 10 mM were added to cells at final concentrations of 20 micromolar (μM) to 20 nanomolar (nM) in 0.2% DMSO in triplicate plates. Approximately 40 hours later, cytotoxicity in the assay well was characterized by addition of the dye resazurin (O'Brien, Wilson et al. 2000) to a final concentration of 3 μM. […] Percent viability was determined as 2 hour fluorescence, minus background at t=0 hours, normalized to DMSO controls. For detection of luciferase activity, media was removed from plates after the measurement of resazurin conversion, and SteadyLite luciferase reagent (Perkin-Elmer) was added (30 μl/well). Luminescence is detected with a Victor 2-V plate reader (Perkin-Elmer) and normalized to luciferase activity of DMSO control wells alone.
(Reporter assays use an easily measured gene product as a stand-in for the process of interest.)

The target in assay [2] is T2, mRORγ LBD (Mus musculus, UniProt P51450).
T2 construct: made in house; host or cells: Sf9 insect cells, baculovirus; cleared lysate used directly
T2 sequence (P51450 251-516): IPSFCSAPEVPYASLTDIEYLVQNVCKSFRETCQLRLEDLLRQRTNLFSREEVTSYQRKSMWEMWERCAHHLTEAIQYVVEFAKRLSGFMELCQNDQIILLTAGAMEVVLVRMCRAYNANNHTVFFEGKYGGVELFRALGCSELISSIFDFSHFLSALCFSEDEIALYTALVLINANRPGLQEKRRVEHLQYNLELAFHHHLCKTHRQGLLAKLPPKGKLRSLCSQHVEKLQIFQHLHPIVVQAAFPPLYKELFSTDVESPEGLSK
Description: Biochemical assay, coregulatory peptide recruitment to GST-RORγ LBD (FRET). The source says:
GST-RORγ was generated by subcloning the RORγ-LBD into pET-41a, a vector which expresses GST fusion proteins in bacteria.
The cloning steps for GST-RORγ were as follows. The mRORγ LBD was excised from Gal4-mRORγ (see above for cloning steps) at BamHI and HindIII sites of Sequence 1 and cloned into the corresponding sites of pET-41a(+) (EMD Biosciences, San Diego, Calif.). A GST-mRORγ fragment was then excised from pET-41a(+) at XbaI and XhoI sites and cloned into a pcDNA3.1vector (Invitrogen, Carlsbad, Calif.) restricted at NheI and XhoI sites. Plasmid GST-mRORγ-pcDNA3.1 was used as a PCR template to generate a GST-mRORγ fragment that was later cloned into pENTR/D-TOPO vector (Invitrogen, Carlsbad, Calif.) by standard cloning techniques recommended by the manufacturer of the vector. The nucleotide sequence of GST-mRORγ is shown below:
For baculoviral expression of RORγ, the cDNA fragment of GST-RORγ— LBD, was subcloned from pET-41a into the pENTR/D-TOPO vector using a commercially-available kit (BaculoDirect, Invitrogen). Briefly, GST-RORγ carried by pENTR/D-TOPO was transfected into mono-layer Sf9 cells (8×10^5/well in 6-well plates) by Cellfectin (Invitrogen). Sf9 cells were incubated at 27° C. in a non-humidified incubator for 72 hours. Cell media was collected as P1 viral stock and used to further infect Sf9 cells to generate P2 and P3 virus. […] A plaque assay was performed to determine the titer of P3 virus and to isolate single plaques. P4 virus was generated from a single plaque and propagated on a larger scale.
Adherent SF9 cells were infected with baculovirus carrying GST-RORγ and were cultured for 72 hours. Sf9 cell were then subject to a brief sonication in a lysis buffer (20 mM phosphate, pH 6.8, 50 mM KCl, 50 mM NaCl, 0.5 mM EDTA, 50% glycerol, 0.001% NP-40 and 1 mM DTT) and centrifuged at 3000 rpm for 15 minutes. […] Cleared cell lysate was stored at −70° C. and is directly utilized in the coregulatory peptide recruitment assay.
The labeled probes anti-GST-APC and SA-RPE were purchased from Prozyme (San Leandro, Calif.). Compounds were added directly from a DMSO solution to a final concentration of 1-2% DMSO. Fluorescence was measured on a Wallac Victor 2 V plate reader equipped with a 670/40 nm filter (Omega Optical, Brattleboro, Vt.) for APC emission (Channel A) and a 600/25 bandpass filter for monitoring the RPE emission (Channel B).

Assay [3] addresses T3, human RORγ (Homo sapiens, UniProt P51449).
T3 construct: expressed in transfected cells; host or cells: CHO cells, transient transfection
T3 sequence (P51449 253-518): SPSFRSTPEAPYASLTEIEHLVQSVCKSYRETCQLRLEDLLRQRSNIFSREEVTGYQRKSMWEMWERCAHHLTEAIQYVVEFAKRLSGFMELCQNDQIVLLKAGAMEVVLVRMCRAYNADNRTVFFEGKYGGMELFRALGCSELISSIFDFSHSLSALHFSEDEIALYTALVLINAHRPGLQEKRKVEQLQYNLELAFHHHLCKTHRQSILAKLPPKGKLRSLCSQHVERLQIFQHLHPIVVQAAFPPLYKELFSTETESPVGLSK
Description: Transcriptional assay of human RORγ (Gal4-hRORγ). In kind it is cell-based. Particulars: Table 4B. The procedure: The complete Gal4-hRORγ nucleotide sequence is shown below:
as §1, §2

Assay [4] has as its target T4, hPR (progesterone receptor) (Homo sapiens, UniProt P06401).
T4 construct: 687-933; expressed in transfected cells; host or cells: CHO cells, transient transfection
T4 sequence (P06401 687-933): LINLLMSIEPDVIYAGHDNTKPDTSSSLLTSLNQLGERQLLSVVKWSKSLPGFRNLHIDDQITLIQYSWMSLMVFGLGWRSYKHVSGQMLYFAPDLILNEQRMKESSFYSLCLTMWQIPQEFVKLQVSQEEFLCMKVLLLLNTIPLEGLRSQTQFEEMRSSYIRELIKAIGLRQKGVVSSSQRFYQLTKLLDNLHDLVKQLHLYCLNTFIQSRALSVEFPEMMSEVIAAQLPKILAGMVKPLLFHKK
Briefly: Crossreactive receptor transcriptional assay (Gal4 hybrid). The class given is cell-based. The following applies: activity of standard ligand at 20 μM. The procedure: as §1, §2

In assay [5] the test system is TH-17 cell differentiation from naïve CD4+ T cells. Briefly: Differentiation of naïve CD4+ T cells, intracellular IL-17/IFN-γ staining by FACS (TH-17 protocol, TGFβ + IL-6). In kind it is cell-based, mouse. Particulars: Table 8, naïve CD4 cells, 5 days, mean ±SD. (In general: A flow cytometer gives signals particle by particle.)
In assay [6] the target is T5, mLXRα (Liver X receptor alpha) (Mus musculus, UniProt Q9Z0Y9).
T5 construct: 172-455; expressed in transfected cells; host or cells: CHO cells, transient transfection
T5 sequence (Q9Z0Y9 172-445 limits assumed): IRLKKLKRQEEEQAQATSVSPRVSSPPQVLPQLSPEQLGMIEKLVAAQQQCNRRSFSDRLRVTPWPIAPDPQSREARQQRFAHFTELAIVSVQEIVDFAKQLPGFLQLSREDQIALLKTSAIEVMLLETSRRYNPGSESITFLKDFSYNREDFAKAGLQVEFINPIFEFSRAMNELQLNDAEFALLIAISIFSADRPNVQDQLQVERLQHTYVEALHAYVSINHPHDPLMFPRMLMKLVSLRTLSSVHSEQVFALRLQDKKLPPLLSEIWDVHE
Briefly: Transcriptional assay of LXRα (Gal4-LXRα hybrid). In kind it is cell-based. The procedure: as §1, §2
A transcriptional assay for LXRα, using a Gal4-LXRα hybrid, was implemented in order to compare RORγ ligand potencies. In addition to LXRα, transcriptional assays for a number of other major nuclear receptors were developed.

Setting [7] is: Table 4A, medians of two or more assays, unit inferred, read-out: EC50 Transcriptional.
[8] abbreviates: Table 4A, peptide K1, no agonist present, medians of two or more assays, unit inferred, read-out: EC50 Biochemical.
Setting [9] is: Table 1, antagonists, inhibition of basal Gal4-mRORγ transcription in CHO cells, read-out: Assay EC50 in micromolar at mRORγ Transcriptional.
The mark [10] stands for this setting: Table 7, taken from Table 1, read-out: Assay EC50 in micromolar at mRORγ Transcriptional.
The mark [11] stands for this setting: Table 1, mRORγ and peptide K1, read-out: Assay EC50 in micromolar at mRORγ Biochemical.
Setting [12] is: Table 7, taken from Table 1 (peptide K1), read-out: Assay EC50 in micromolar at mRORγ Biochemical.
[13] abbreviates: Table 7, no unit printed for this column (b114 gives 1.5 μM for OR-1050), read-out: Transcriptional Assay of LXRα EC50.

T1 sequence (P51450 with tags, fused parts or gaps): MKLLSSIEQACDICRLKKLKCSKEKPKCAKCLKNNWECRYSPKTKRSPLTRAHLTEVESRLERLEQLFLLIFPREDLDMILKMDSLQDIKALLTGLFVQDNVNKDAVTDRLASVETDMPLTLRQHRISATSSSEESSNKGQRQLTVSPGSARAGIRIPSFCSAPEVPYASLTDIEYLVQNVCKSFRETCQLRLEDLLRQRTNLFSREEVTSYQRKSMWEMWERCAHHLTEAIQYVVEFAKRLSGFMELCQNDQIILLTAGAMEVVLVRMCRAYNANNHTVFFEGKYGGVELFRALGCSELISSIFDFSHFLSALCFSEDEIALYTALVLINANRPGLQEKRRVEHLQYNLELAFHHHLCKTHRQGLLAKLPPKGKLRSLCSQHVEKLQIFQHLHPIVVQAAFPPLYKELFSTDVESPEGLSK

Usually pEC50 stands for the EC50 on a negative log10 scale, so that one unit is a factor of ten. One may read the EC50 as the concentration that produces a half-maximal response. Low readings indicate a more potent agent, high ones a less potent agent. In the case of `Cn1c(CNc2cccc(Cl)c2)nnc1SCC(=O)Nc1cccc2ccccc12` [OR-133167, 2-{5-[(3-Chloro-phenylamino)-methyl]-4-methyl-4H-[1,2,4]triazol-3-ylsulfanyl}N-naphthalen-1-yl-acetamide], the pEC50 was 5.48 in assay [1] (setting [7]) and 5.47 in assay [2] (setting [8]). The molecule further showed an EC50 in assay [3] of 9.4 µM.
As for `CC(=O)[C@H]1CC[C@H]2[C@@H]3CCC4=CC(=O)CC[C@]4(C)[C@H]3CC[C@]12C` [Progesterone, progesterone, reference compound], the “Efficacy at hPR” value in assay [4] was determined as 6X.
In the case of `CCn1c(CNc2cccc(C(F)(F)F)c2)nnc1SCC(=O)Nc1cccc2ccccc12` [OR-133099, 2-{4-Ethyl-5-[(3-trifluoromethyl-phenylamino)-methyl]-4H-[1,2,4]triazol-3-ylsulfanyl}N-naphthalen-1-yl-acetamide], the pEC50 was 5.98 in assay [1] (setting [7]) and 5.88 in assay [2] (setting [8]). Besides, the EC50 in assay [3] came out at 2.4 µM.
Regarding “IL-6: exogenous cytokine used for TH-17 differentiation”, the “IL-17 (%)” value in assay [5] (20 ng/ml) came to 1.20 ± 0.04%.
As usually defined, the Emax is the size of the effect at its maximum, as opposed to the concentration needed. As to `CCN(c1ccc(C(O)(C(F)(F)F)C(F)(F)F)cc1)S(=O)(=O)c1ccccc1` [OR-1031, N-Ethyl-N-[4-(2,2,2-trifluoro-1-hydroxy-1-trifluoromethyl-ethyl)-phenyl]-benzenesulfonamide], the pEC50 in assay [1] (Assay EC50 in micromolar at mRORγ Transcriptional, Table 1, antagonists, inhibition of basal Gal4-mRORγ transcription in CHO cells) is 5.85; in assay [1] (Assay EC50 in micromolar at mRORγ Transcriptional, Table 7, taken from Table 1), 5.85; in assay [2], 5.46; in assay [6] it was 5.85. In assay [6], the Emax was greater than 80%.
On to `CCn1c(CNc2ccc(C)c(Cl)c2)nnc1SCC(=O)Nc1cccc2ccccc12` [OR-133171, 2-{5-[(3-Chloro-4-methyl-phenylamino)-methyl]-4-ethyl-4H-[1,2,4]triazol-3-ylsulfanyl}N-naphthalen-1-yl-acetamide], for which the pEC50 in assay [1] (setting [7]) is 6.31; in assay [2] (setting [8]) it was 6.36. The molecule also registered a half-maximal effective concentration (EC50) in assay [3] of 1.7 µM.
Turning to `CCN(c1ccc(C(O)(C(F)(F)F)C(F)(F)F)cc1)S(=O)(=O)c1ccc(C)cc1` [OR-1052, N-Ethyl-4-methyl-N-[4-(2,2,2-trifluoro-1-hydroxy-1-trifluoromethyl-ethyl)-phenyl]-benzenesulfonamide], the negative logarithm of the EC50 (pEC50) in assay [1] (setting [9]) is 6.68; in assay [1] (setting [10]), 6.68; in assay [2] (setting [11]), 6.05; in assay [2] (setting [12]), 6.05; in assay [6] (setting [13]), 6.09. In assay [6], the Emax is greater than 80%. The “specificity for RORγ versus LXRα” value in assay [6] (comparison of transcriptional assays for RORγ and LXRα (Table 7)) was “more specific for RORγ than LXRα”.
For the molecule `O=C(O)CN(c1ccc(C(O)(C(F)(F)F)C(F)(F)F)cc1)S(=O)(=O)c1ccccc1` [OR-1046, {Benzenesulfonyl-[4-(2,2,2-trifluoro-1-hydroxy-1-trifluoromethyl-ethyl)-phenyl]-amino}-acetic acid], the pEC50 is less than 4.70 in assay [1] (setting [9]); less than 4.70 in assay [1] (setting [10]); less than 4.00 in assay [2] (setting [11]); less than 4.00 in assay [2] (setting [12]); less than 4.00 in assay [6] (setting [13]). The molecule further gave an Emax in assay [6] of less than 5%.
Regarding `CCN(c1ccc(C(OC)(C(F)(F)F)C(F)(F)F)cc1)S(=O)(=O)c1ccccc1` [OR-1030, N-Ethyl-N-[4-(2,2,2-trifluoro-1-methoxy-1-trifluoromethyl-ethyl)-phenyl]-benzenesulfonamide], the pEC50 in assay [1] (setting [9]) was less than 4.70; in assay [1] (setting [10]), less than 4.70; in assay [2] (setting [11]) it was less than 4.00; in assay [2] (setting [12]), less than 4.00; in assay [6] (setting [13]) it was less than 4.00. In addition, the maximum response (Emax) in assay [6] is less than 5%.
“TGFβ1: exogenous cytokine used for TH-17 differentiation”: the “IL-17 (%)” value in assay [5] (4 ng/ml) is given as 0.21 ± 0.02%.
Turning to `CCn1c(CNc2cccc(Cl)c2)nnc1SCC(=O)Nc1cccc2ccccc12` [OR-133097, 2-{5-[(3-Chloro-phenylamino)-methyl]-4-ethyl-4H-[1,2,4]triazol-3-ylsulfanyl}N-naphthalen-1-yl-acetamide], the pEC50 in assay [1] (setting [7]) was 5.84; in assay [2] (setting [8]) it was 5.87. Moreover, the EC50 in assay [3] amounted to 5 µM.
